In ChEMBL document CHEMBL4715741, “Neuroprotective effect of synthetic chalcone derivatives as competitive dual inhibitors against μ-calpain and cathepsin B through the downregulation of tau phosphorylation and insoluble Aβ peptide formation” (Eur J Med Chem, 2016):
Activity calls are given as the source filed them. The calls are words filed in the database; no cut-off is given here. Square brackets hold non-standard residues; d marks the D form. Peptide text beside a SMILES is read from it. * marks the point of attachment. ξ: configuration not given here. ξF = NC(Cc1ccccc1)C(=O)O; Cbz = O=C(OCc1ccccc1)*; CH2F = FC*

Key:
SH-SY5Y [1] = test: Neuroprotective activity in human SH-SY5Y cells assessed as reduction in GOx-induced PARP cleavage at 20 uM pretreated with GOx for 4 hrs followed by compound treatment by Western blot analysis; format: functional, cell-based
[2] = molecular target: T1, Calpain-1 catalytic subunit (Homo sapiens, UniProt P07384); test: Inhibition of human erythrocytes mu-calpain using Pep1 as substrate incubated for 30 mins under shaking condition in presence of CaCl2 by fluorescence assay; set-up: species or system Erythrocyte
T1 sequence (P07384 whole entry): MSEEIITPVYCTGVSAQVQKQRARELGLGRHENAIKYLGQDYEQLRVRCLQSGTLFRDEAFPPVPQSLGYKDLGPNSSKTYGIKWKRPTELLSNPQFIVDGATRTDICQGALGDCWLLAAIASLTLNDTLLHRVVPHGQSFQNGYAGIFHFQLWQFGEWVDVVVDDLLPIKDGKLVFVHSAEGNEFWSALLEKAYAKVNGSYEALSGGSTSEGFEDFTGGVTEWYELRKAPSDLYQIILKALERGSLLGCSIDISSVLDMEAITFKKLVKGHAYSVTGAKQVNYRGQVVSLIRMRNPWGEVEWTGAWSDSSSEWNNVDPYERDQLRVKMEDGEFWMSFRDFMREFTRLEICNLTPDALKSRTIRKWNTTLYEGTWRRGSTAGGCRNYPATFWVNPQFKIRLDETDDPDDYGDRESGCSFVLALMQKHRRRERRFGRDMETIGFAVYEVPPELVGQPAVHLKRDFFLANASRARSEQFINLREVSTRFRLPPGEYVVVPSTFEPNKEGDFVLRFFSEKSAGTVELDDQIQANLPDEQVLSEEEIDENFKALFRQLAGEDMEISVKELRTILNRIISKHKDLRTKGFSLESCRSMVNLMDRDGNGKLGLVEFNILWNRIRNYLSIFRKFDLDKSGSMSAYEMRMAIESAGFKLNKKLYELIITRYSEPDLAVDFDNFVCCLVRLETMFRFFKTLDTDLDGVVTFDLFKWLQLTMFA

Procathepsin L = Procathepsin L (Homo sapiens, UniProt P07711); test: Inhibition of cathepsin L (unknown origin) using Z-FR-AMC as substrate preincubated for 30 mins followed by substrate addition and further incubated for 30 mins under shaking condition by fluorescence assay
Chain of Procathepsin L (P07711 whole entry): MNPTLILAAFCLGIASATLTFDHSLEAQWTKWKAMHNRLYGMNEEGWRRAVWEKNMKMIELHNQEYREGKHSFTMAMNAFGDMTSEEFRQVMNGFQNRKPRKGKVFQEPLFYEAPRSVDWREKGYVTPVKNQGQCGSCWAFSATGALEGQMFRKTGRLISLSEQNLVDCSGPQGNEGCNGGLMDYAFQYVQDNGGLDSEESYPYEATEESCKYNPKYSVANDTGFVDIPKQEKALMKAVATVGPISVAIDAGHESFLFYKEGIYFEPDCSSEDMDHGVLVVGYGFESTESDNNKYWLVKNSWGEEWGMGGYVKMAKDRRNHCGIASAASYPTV

Cathepsin B [3] = molecular target: T2, Cathepsin B (Homo sapiens, UniProt P07858); test: Inhibition of cathepsin B (unknown origin) using RR-AMC as substrate preincubated for 30 mins followed by substrate addition and further incubated for 30 mins under shaking condition by fluorescence assay
[4] = molecular target: T1, Calpain-1 catalytic subunit; test: Inhibition of human erythrocytes mu-calpain using Pep2 as substrate incubated for 30 mins under shaking condition in presence of CaCl2 by fluorescence assay; set-up: species or system Erythrocyte
SH-SY5Y [5] = test: Inhibition of mu-calpain/cathepsin B in human SH-SY5Y cells assessed as reduction in GOx-induced BACE1 upregulation at 20 uM pretreated with GOx for 4 hrs followed by compound treatment by Western blot analysis; format: cell-based
Cathepsin B [6] = molecular target: T2, Cathepsin B; test: Inhibition of cathepsin B in human SH-SY5Y cells using RR-AMC as substrate by fluorescence microplate reader assay; format: cell-based
[7] = molecular target: T3, Calpain-1 catalytic subunit (Homo sapiens) (UniProt P07384); test: Inhibition of mu-calpain (unknown origin) expressed in HEK293T cells assessed as reduction in p35 cleavage at 5 uM using p35 as substrate measured after 210 mins by fluorescence microplate reader assay; format: cell-based
T3 sequence (whole entry): T1 sequence (P07384 whole entry)

[8] = molecular target: T3, Calpain-1 catalytic subunit (Homo sapiens); test: (§1) Competitive inhibition of human erythrocytes mu-calpain using varying level of Pep2 as substrate by Lineweaver-Burk plot analysis; settings: Erythrocyte
[9] = molecular target: T1, Calpain-1 catalytic subunit; test: as §1; set-up: species or system Erythrocyte
SH-SY5Y [10] = test: Neuroprotective activity in human SH-SY5Y cells assessed as reduction in GOx-induced caspase 3 cleavage pretreated with GOx for 4 hrs followed by compound treatment by Western blot analysis; format: functional, cell-based
[11] = molecular target: T3, Calpain-1 catalytic subunit (Homo sapiens); test: Inhibition of mu-calpain (unknown origin) expressed in SH-SY5Y cells assessed as reduction in p35 cleavage at 20 uM using p35 as substrate measured after 210 mins by fluorescence microplate reader assay; format: cell-based
SH-SY5Y [12] = test: Reduction in GOx-induced amyloid beta(1 to 42) level in human SH-SY5Y cells pretreated with GOx for 4 hrs followed by compound treatment by sandwich ELISA; format: functional, cell-based
[13] = molecular target: T3, Calpain-1 catalytic subunit (Homo sapiens); test: Inhibition of mu-calpain in human SH-SY5Y cells assessed as reduction in tau phosphorylation by Western blot analysis; format: cell-based
[14] = molecular target: T3, Calpain-1 catalytic subunit (Homo sapiens); test: Inhibition of mu-calpain in human SH-SY5Y cells assessed as reduction in GOx-induced MAPK phosphorylation pretreated with GOx for 4 hrs followed by compound treatment by Western blot analysis; format: cell-based
[15] = molecular target: T3, Calpain-1 catalytic subunit (Homo sapiens); test: Inhibition of mu-calpain in human SH-SY5Y cells assessed as reduction in GOx-induced […] pretreated with GOx for 4 hrs followed by compound treatment by Western blot analysis; format: cell-based
SH-SY5Y [16] = test: Neuroprotective activity in human SH-SY5Y cells assessed as reduction in GOx-induced PARP cleavage at 5 uM pretreated with GOx for 4 hrs followed by compound treatment by Western blot analysis; format: functional, cell-based
Cathepsin B [17] = molecular target: T2, Cathepsin B; test: Competitive inhibition of cathepsin B (unknown origin) using varying level of RR-AMC as substrate by Lineweaver-Burk plot analysis
Cathepsin B [18] = molecular target: T2, Cathepsin B; test: Inhibition of human liver cathepsin B using RR-AMC as substrate preincubated for 30 mins followed by substrate addition and further incubated for 30 mins under shaking condition by fluorescence assay; format: tissue-based

## CC(C)[C@H](NC(=O)OCc1ccccc1)C(=O)NC(C=O)Cc1ccccc1 (stereo partly drawn) (Cbz-Val-[ξF]-aldehyde)
SH-SY5Y [1]
  Activity: Active

## CCCNC(=O)[C@H]1O[C@@H]1C(=O)N[C@H](C(=O)N1CCC[C@H]1C(=O)O)[C@@H](C)CC
SH-SY5Y [1]
  Activity: Active
[2]
  IC50: > 100 µM

## CCCC[C@@H](C=O)NC(=O)[C@H](CC(C)C)NC(=O)OCc1ccccc1 [CALPEPTIN]
Procathepsin L
  IC50: 0.072 µM
Cathepsin B [3]
  IC50: > 100 µM
[2]
  IC50: 0.297 µM

## O=C(/C=C/c1ccc(O)c2ccccc12)c1ccc(O)cc1
Procathepsin L
  IC50: 21.6 µM
Cathepsin B [3]
  IC50: 14.8 µM
[2]
  IC50: 69.6 µM

## COc1cc(O)ccc1C(=O)/C=C/c1ccc(O)cc1
[4]
  IC50: 16.9 µM

## O=C(/C=C/c1ccc(O)c2ccccc12)c1ccc(O)cc1O
SH-SY5Y [5]
  inhibition: Active
Cathepsin B [6]
  IC50: 13 µM
[7]
  inhibition: Active
[8]
  inhibition: Dose-dependent effect
[9]
  Ki: 19.3 µM
SH-SY5Y [10]
  Activity: Active
[11]
  inhibition: Active
SH-SY5Y [12]
  Activity: Active
[13]
  inhibition: Active
Procathepsin L
  IC50: 14.9 µM
Cathepsin B [3]
  IC50: 6.34 µM
[14]
  inhibition: Active
[15]
  inhibition: Active
SH-SY5Y [16]
  Activity: Active
Cathepsin B [17]
  Ki: 10.6 µM
  inhibition: Dose-dependent effect
[2]
  IC50: 18.8 µM

## O=C(N[C@@H](Cc1ccccc1)C(=O)N[C@@H](Cc1ccccc1)C(=O)CF)OCc1ccccc1 (Cbz-Phe-Phe-CH2F)
[2]
  IC50: 0.397 µM

## COc1ccc(/C=C/C(=O)c2ccc(O)cc2)c2ccccc12
Procathepsin L
  IC50: 25.8 µM
Cathepsin B [3]
  IC50: 14.5 µM
[2]
  IC50: 10.2 µM

## O=C(/C=C/c1ccc(O)c2ccccc12)c1ccco1
Procathepsin L
  IC50: 33 µM
Cathepsin B [3]
  IC50: > 50 µM
[2]
  IC50: 40.9 µM

## COc1ccccc1/C=C/C=C/C(=O)c1cccnc1
Procathepsin L
  IC50: 48.4 µM
Cathepsin B [3]
  IC50: 33.3 µM
[2]
  IC50: 19.1 µM

## COc1ccc(/C=C/C(=O)/C=C/c2ccc(O)cc2OC)cc1
Procathepsin L
  IC50: > 50 µM
Cathepsin B [3]
  IC50: 37.8 µM
[2]
  IC50: 46.6 µM

## CCOC(=O)[C@H]1O[C@@H]1C(=O)N[C@@H](CC(C)C)C(=O)NCCC(C)C [ALOXISTATIN]
SH-SY5Y [1]
  Activity: Active
Procathepsin L
  IC50: 2.41 µM
Cathepsin B [3]
  IC50: 14.4 µM
[2]
  IC50: 62.3 µM

## O=C(/C=C/c1ccc(O)c2ccccc12)c1cccs1
Procathepsin L
  IC50: 35.4 µM
Cathepsin B [3]
  IC50: > 50 µM
[2]
  IC50: > 50 µM

## COc1cc(/C=C/C=C/C(=O)c2ccc(O)cc2)ccc1O
SH-SY5Y [5]
  inhibition: Active
Cathepsin B [6]
  IC50: 3.81 µM
[7]
  inhibition: Active
[8]
  inhibition: Dose-dependent effect
[9]
  Ki: 5.73 µM
SH-SY5Y [10]
  Activity: Active
[11]
  inhibition: Active
SH-SY5Y [12]
  Activity: Active
[13]
  inhibition: Active
Procathepsin L
  IC50: 16 µM
Cathepsin B [3]
  IC50: 11.1 µM
[14]
  inhibition: Active
[15]
  inhibition: Active
SH-SY5Y [16]
  Activity: Active
Cathepsin B [17]
  Ki: 4.74 µM
  inhibition: Dose-dependent effect
[2]
  IC50: 16.8 µM

## COc1cc(/C=C/C(=O)c2ccco2)ccc1O
Cathepsin B [18]
  IC50: 20.6 µM
[4]
  IC50: 15.4 µM

## CCOc1cc(O)ccc1C(=O)/C=C/C=C/c1ccccc1OC
Procathepsin L
  IC50: 27 µM
Cathepsin B [3]
  IC50: 13.9 µM
[2]
  IC50: 13 µM

## COc1ccc(O)cc1/C=C/C(=O)c1ccc(O)cc1
[4]
  IC50: 16.7 µM

## COc1ccccc1/C=C/C=C/C(=O)c1ccc(O)cc1
Procathepsin L
  IC50: 26.1 µM
Cathepsin B [3]
  IC50: 33.1 µM
[2]
  IC50: 13.7 µM

## COc1cc(O)ccc1C(=O)/C=C/c1ccc(O)c2ccccc12
Procathepsin L
  IC50: 15.6 µM
Cathepsin B [3]
  IC50: 15.6 µM
[2]
  IC50: 23.8 µM
